Source: patent US9795140B2, “Molecules having pesticidal utility, and intermediates, compositions, and processes, related thereto” (priority 2015, dated 2017)

Key:
Type in all cases: in vivo
[1] = system: Beet Armyworm (Spodoptera exigua, LAPHEG); assay: Bioassay on Beet Armyworm (BAW), 128-well diet tray assay; conditions: 168 h, 50 μg/cm^2 on artificial diet, second instar larvae, 25° C., five to seven days, average of eight wells, read-out: BAW % Control (or Mortality) rating
Procedure, shortened: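 Artificial diet surface-treated with 50 μg/cm^2 test molecule in 90:10 acetone-water, dried, then infested with one to five second instar larvae per well. Held covered and vented at 25° C., 14:10 light-dark for five to seven days; percent mortality recorded per well and averaged over eight wells.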

[2] = system: Cabbage Looper (Trichoplusia ni, TRIPNI); assay: Bioassay on Cabbage Looper (CL), 128-well diet tray assay; conditions: 168 h, 50 μg/cm^2 on artificial diet, second instar larvae, 25° C., five to seven days, average of eight wells, read-out: CL % Control (or Mortality) rating
Procedure, shortened: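 Second-instar T. ni larvae (one to five per well) were placed on artificial diet treated with 50 μg/cm^2 compound, applied in 90:10 acetone-water and dried. Trays were held five to seven days at 25 °C under 14:10 light-dark. Percent mortality per well was averaged over eight wells.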

[3] = system: Yellow Fever Mosquito (Aedes aegypti, AEDSAE); assay: Bioassay on Yellow Fever Mosquito (YFM) larvae, 96-well plate; conditions: about 1 day-old larvae, room temperature, 3 days, scored on mortality
Procedure, shortened: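 Aedes aegypti larvae (about 1 day old) in liver-powder water were added to plates dispensed from DMSO master plates (4000 ppm stock) diluted with 90:10 water/acetone; six replicate plates per master. Lidded plates were held at room temperature for 3 days, then each well was scored for mortality.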

SMILES | mortality at 50 µg/cm2 [1] [%] | mortality at 50 µg/cm2 [2] [%] | YFM % Control (or Mortality) rating [3]
O=C(Nc1ccc(Cl)c(C(=O)N2CCC(F)(F)C2)c1)[C@H]1[C@H](c2cc(Cl)cc(Cl)c2)C1(Cl)Cl (relative stereo) [F71, trans-2,2-Dichloro-N-(4-chloro-3-(3,3-difluoropyrrolidine-1-carbonyl)phenyl)-3-(3,5-dichlorophenyl)cyclopropane-1-carboxamide] | 50 to 100 | 50 to 100 | D (No activity noticed in this bioassay)
CCNC(=O)c1cc(NC(=O)[C@H]2[C@H](c3cc(Cl)c(OC)c(Cl)c3)C2(Cl)Cl)ccc1Cl (relative stereo) [F85, trans-2-Chloro-5-(2,2-dichloro-3-(3,5-dichloro-4-methoxyphenyl)cyclopropane-1-carboxamido)-N-ethylbenzamide] | 50 to 100 | 50 to 100 | B (More than 0-Less than 80)
O=C(NCCn1cccn1)c1cc(NC(=O)[C@H]2[C@H](c3cc(Cl)cc(Cl)c3)C2(Cl)Cl)ccc1Cl (relative stereo) [PF13, trans-N-(2-(1H-Pyrazol-1-yl)ethyl)-2-chloro-5-(2,2-dichloro-3-(3,5-dichlorophenyl)cyclopropane-1-carboxamido)benzamide] | 50 to 100 | 50 to 100 | A (80-100)
CCOCCNC(=O)c1cc(NC(=O)[C@H]2[C@H](c3cc(Cl)cc(Cl)c3)C2(Cl)Cl)ccc1Cl (relative stereo) [F54, trans-2-Chloro-5-(2,2-dichloro-3-(3,5-dichlorophenyl)cyclopropane-1-carboxamido)-N-(2-ethoxyethyl)benzamide] | 50 to 100 | 50 to 100 | B (More than 0-Less than 80)
O=C(NCCc1csc2ccccc12)c1cc(NC(=O)[C@H]2[C@H](c3cc(Cl)cc(Cl)c3)C2(Cl)Cl)ccc1Cl (relative stereo) [PF15, trans-N-(2-(Benzo[b]thiophen-3-yl)ethyl)-2-chloro-5-(2,2-dichloro-3-(3,5-dichlorophenyl)cyclopropane-1-carboxamido)benzamide] | 50 to 100 | 50 to 100 | A (80-100)
NS(=O)(=O)CCCNC(=O)c1cc(NC(=O)[C@H]2[C@H](c3cc(Cl)cc(Cl)c3)C2(Cl)Cl)ccc1Cl (relative stereo) [PF14, trans-2-Chloro-5-(2,2-dichloro-3-(3,5-dichlorophenyl)cyclopropane-1-carboxamido)-N-(3-sulfamoylpropyl)benzamide] | 0 to 50 | 50 to 100 | D (No activity noticed in this bioassay)
O=C(NCC(F)(F)F)c1cc(NC(=O)[C@H]2[C@H](c3ccc(F)c(C(F)(F)F)c3)C2(Cl)Cl)ccc1Cl (relative stereo) [F119, 2-Chloro-5-(trans-2,2-dichloro-3-(4-fluoro-3-(trifluoromethyl)phenyl)cyclopropane-1-carboxamido)-N-(2,2,2-trifluoroethyl)benzamide] | 50 to 100 | 50 to 100 | A (80-100)
O=C(NCC(F)(F)F)c1cc(NC(=O)[C@H]2[C@H](c3cc(F)cc(Br)c3)C2(Cl)Cl)ccc1Cl (relative stereo) [F123, 5-(trans-3-(3-Bromo-5-fluorophenyl)-2,2-dichlorocyclopropane-1-carboxamido)-2-chloro-N-(2,2,2-trifluoroethyl)benzamide] | 50 to 100 | 50 to 100 | A (80-100)
C[C@H](C[S+]([O-])CC(F)(F)F)NC(=O)c1cc(NC(=O)C2C(c3cc(Cl)cc(Cl)c3)C2(Cl)Cl)ccc1Cl (stereo in doubt) [PF7, trans-2-Chloro-5-(2,2-dichloro-3-(3,5-dichlorophenyl)cyclopropane-1-carboxamido)-N-((2R)-1-((2,2,2-trifluoroethyl)sulfinyl)propan-2-yl)benzamide] | 50 to 100 | 50 to 100 | A (80-100)
CCCN(C)C(=O)c1cc(NC(=O)[C@H]2[C@H](c3cc(Cl)cc(Cl)c3)C2(Cl)Cl)ccc1Cl (relative stereo) [F62, trans-2-Chloro-5-(2,2-dichloro-3-(3,5-dichlorophenyl)cyclopropane-1-carboxamido)-N-methyl-N-propylbenzamide] | 50 to 100 | 50 to 100 | D (No activity noticed in this bioassay)
COc1c(Cl)cc([C@H]2[C@H](C(=O)Nc3ccc(Cl)c(C(=O)NCC(F)(F)F)c3)C2(Cl)Cl)cc1Cl (relative stereo) [F87, trans-2-Chloro-5-(2,2-dichloro-3-(3,5-dichloro-4-methoxyphenyl)cyclopropane-1-carboxamido)-N-(2,2,2-trifluoroethyl)benzamide] | 50 to 100 | 50 to 100 | B (More than 0-Less than 80)
O=C(NCCC(F)(F)C(F)(F)F)c1cc(NC(=O)[C@H]2[C@H](c3cc(Cl)cc(Cl)c3)C2(Cl)Cl)ccc1Cl (relative stereo) [F60, trans-2-Chloro-5-(2,2-dichloro-3-(3,5-dichlorophenyl)cyclopropane-1-carboxamido)-N-(3,3,4,4,4-pentafluorobutyl)benzamide] | 50 to 100 | 50 to 100 | D (No activity noticed in this bioassay)
C[C@H](C[S+]([O-])CCC(F)(F)F)NC(=O)c1cc(NC(=O)C2C(c3cc(Cl)cc(Cl)c3)C2(Cl)Cl)ccc1Cl (stereo in doubt) [PF5, trans-2-Chloro-5-(2,2-dichloro-3-(3,5-dichlorophenyl)cyclopropane-1-carboxamido)-N-((2R)-1-((3,3,3-trifluoropropyl)sulfinyl)propan-2-yl)benzamide] | 50 to 100 | 50 to 100 | A (80-100)
O=C(NCC(F)(F)F)c1cc(NC(=O)[C@H]2[C@H](c3ccc(Cl)c(F)c3)C2(Cl)Cl)ccc1Cl (relative stereo) [F120, 2-Chloro-5-(trans-2,2-dichloro-3-(4-chloro-3-fluorophenyl)cyclopropane-1-carboxamido)-N-(2,2,2-trifluoroethyl)benzamide] | 50 to 100 | 50 to 100 | A (80-100)
O=C(NCC(F)(F)F)c1cc(NC(=O)[C@H]2[C@H](c3ccc(Cl)c(Br)c3)C2(Cl)Cl)ccc1Cl (relative stereo) [F109, 5-(trans-3-(3-Bromo-4-chlorophenyl)-2,2-dichlorocyclopropane-1-carboxamido)-2-chloro-N-(2,2,2-trifluoroethyl)benzamide] | 50 to 100 | 50 to 100 | A (80-100)
O=C(NCCF)c1cc(NC(=O)[C@H]2[C@H](c3cc(Cl)cc(Cl)c3)C2(Cl)Cl)c(Cl)cc1Cl (relative stereo) [F99, trans-2,4-Dichloro-5-(2,2-dichloro-3-(3,5-dichlorophenyl)cyclopropane-1-carboxamido)-N-(2-fluoroethyl)benzamide] | 50 to 100 | 50 to 100 | A (80-100)
CSCCN(C)C(=O)c1cc(NC(=O)[C@H]2[C@H](c3cc(Cl)cc(Cl)c3)C2(Cl)Cl)ccc1Cl (relative stereo) [F68, trans-2-Chloro-5-(2,2-dichloro-3-(3,5-dichlorophenyl)cyclopropane-1-carboxamido)-N-methyl-N-(2-(methylthio)ethyl)benzamide] | 50 to 100 | 50 to 100 | D (No activity noticed in this bioassay)
O=C(NCCCC(F)(F)F)c1cc(NC(=O)[C@H]2[C@H](c3cc(Cl)cc(Cl)c3)C2(Cl)Cl)ccc1Cl (relative stereo) [F72, trans-2-Chloro-5-(2,2-dichloro-3-(3,5-dichlorophenyl)cyclopropane-1-carboxamido)-N-(4,4,4-trifluorobutyl)benzamide] | 50 to 100 | 50 to 100 | A (80-100)
CCNC(=O)c1cc(NC(=O)[C@H]2[C@H](c3cc(Cl)cc(Cl)c3)C2(Cl)Cl)c(Cl)cc1Cl (relative stereo) [F98, trans-2,4-Dichloro-5-(2,2-dichloro-3-(3,5-dichlorophenyl)cyclopropane-1-carboxamido)-N-ethylbenzamide] | 0 to 50 | 0 | A (80-100)
O=C(NCC(F)(F)F)c1cc(NC(=O)[C@H]2[C@H](c3cc(F)cc(C(F)(F)F)c3)C2(Cl)Cl)ccc1Cl (relative stereo) [F122, 2-Chloro-5-(trans-2,2-dichloro-3-(3-fluoro-5-(trifluoromethyl)phenyl)cyclopropane-1-carboxamido)-N-(2,2,2-trifluoroethyl)benzamide] | 50 to 100 | 50 to 100 | A (80-100)
